Reference: PMC9412534, “Diindolylmethane Derivatives: New Selective Blockers for T-Type Calcium Channels” (Membranes, 2022)
“Also recorded” adds a separate entry of the source.

Experiments:
[1] = target: T1, recombinant hCaV3.2 channels (Homo sapiens, UniProt O95180); assay: Whole-cell patch-clamp (QPatch), CaV3.2; assay type: cell-based; details: for IC50: whole-cell current, holding potential −90 mV, n = 3–5; for extent of block of CaV3.2 whole-cell inward Ca2+ current: QPatch
T1 construct: the only CaV3.2-expressing cells described
T1 sequence (O95180 whole entry): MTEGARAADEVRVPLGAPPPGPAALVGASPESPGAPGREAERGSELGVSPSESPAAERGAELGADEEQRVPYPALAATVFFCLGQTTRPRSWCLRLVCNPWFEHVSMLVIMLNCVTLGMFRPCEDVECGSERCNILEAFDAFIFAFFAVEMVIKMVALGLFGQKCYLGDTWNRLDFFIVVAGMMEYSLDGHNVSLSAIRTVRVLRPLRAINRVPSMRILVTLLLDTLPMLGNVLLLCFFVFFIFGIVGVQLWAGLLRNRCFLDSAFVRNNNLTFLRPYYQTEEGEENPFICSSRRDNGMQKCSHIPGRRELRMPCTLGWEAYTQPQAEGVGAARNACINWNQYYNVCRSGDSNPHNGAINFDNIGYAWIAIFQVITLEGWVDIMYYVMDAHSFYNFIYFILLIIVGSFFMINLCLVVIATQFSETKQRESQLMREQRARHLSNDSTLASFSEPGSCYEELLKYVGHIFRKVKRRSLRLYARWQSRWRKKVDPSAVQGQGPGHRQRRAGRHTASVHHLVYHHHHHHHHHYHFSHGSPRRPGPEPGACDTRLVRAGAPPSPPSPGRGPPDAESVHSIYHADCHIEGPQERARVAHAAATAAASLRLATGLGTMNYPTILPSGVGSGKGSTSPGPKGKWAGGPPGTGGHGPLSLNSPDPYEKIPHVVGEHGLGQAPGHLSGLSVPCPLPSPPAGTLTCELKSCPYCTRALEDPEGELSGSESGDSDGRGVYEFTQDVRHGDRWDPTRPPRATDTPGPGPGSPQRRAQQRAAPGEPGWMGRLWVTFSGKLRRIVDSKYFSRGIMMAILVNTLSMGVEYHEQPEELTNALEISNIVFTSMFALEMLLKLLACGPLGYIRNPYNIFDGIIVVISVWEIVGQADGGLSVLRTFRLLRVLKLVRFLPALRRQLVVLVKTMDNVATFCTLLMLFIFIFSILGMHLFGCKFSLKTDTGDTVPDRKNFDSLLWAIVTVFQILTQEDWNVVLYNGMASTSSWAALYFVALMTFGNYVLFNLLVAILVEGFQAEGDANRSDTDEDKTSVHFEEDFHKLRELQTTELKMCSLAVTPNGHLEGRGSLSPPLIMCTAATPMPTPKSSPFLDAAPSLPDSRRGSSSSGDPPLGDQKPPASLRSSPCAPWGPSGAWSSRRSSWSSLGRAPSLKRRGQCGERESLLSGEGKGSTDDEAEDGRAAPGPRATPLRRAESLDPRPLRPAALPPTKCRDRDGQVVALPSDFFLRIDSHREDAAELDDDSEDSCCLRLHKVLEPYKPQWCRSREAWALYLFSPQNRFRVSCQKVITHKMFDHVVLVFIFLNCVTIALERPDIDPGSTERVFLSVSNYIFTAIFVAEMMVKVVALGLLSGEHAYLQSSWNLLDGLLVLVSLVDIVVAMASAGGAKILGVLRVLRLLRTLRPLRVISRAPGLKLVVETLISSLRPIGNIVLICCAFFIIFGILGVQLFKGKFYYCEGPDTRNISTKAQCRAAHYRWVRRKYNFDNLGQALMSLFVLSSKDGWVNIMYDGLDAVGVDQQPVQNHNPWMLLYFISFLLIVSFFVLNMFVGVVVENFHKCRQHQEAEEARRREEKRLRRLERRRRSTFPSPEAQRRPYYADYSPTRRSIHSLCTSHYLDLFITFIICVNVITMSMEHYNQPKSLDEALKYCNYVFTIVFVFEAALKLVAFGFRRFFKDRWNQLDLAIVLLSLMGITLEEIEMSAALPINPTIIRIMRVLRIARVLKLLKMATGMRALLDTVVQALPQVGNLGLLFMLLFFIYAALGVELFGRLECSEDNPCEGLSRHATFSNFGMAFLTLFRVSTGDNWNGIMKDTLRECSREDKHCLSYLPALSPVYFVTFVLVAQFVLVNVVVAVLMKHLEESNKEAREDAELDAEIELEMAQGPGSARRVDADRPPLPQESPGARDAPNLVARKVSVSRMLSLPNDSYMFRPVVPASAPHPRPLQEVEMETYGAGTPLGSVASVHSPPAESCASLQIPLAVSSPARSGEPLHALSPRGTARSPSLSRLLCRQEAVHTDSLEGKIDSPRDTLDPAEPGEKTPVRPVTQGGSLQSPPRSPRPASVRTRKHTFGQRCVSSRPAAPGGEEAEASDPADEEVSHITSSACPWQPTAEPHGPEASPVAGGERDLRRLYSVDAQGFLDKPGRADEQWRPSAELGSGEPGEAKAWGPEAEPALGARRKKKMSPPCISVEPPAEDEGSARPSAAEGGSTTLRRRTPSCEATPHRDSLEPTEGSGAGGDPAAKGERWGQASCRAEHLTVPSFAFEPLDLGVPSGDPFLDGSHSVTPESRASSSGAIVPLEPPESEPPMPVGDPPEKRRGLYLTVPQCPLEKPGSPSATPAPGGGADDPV
Description: (§1) The human embryonic kidney 293 (HEK 293) cell lines (from Emmanuel Bourinet, Montpellier, France) stably expressing CaV3.2 or CaV3.3 were cultured under 5% carbon dioxide at 37 °C in Dulbecco’s Modified Eagle Medium (DMEM) Glutamax (Gibco, Life Technologies, Carlsbad, CA, USA) supplemented with 10% (v/v) fetal bovine serum (FBS), 100 U/mL penicillin, 100 μg/mL streptomycin (Gibco, Life Technologies, Carlsbad, CA, USA), and 750 μg/mL geneticin (G418) (Gibco, Life Technologies). The Chinese Hamster Ovary (CHO) cell lines (Emmanuel Bourinet, Montpellier, France) expressing CaV3.1 were cultured under 5% carbon dioxide at 37 °C in Alpha Minimum Essential Media (MEM) Glutamax (Gibco, Life Technologies), supplemented with 10% (v/v) fetal bovine serum (FBS) and 300 μg/mL geneticin (G418) (Gibco, Life Technologies). The human neuroblastoma SH-SY5Y cells (Victor Diaz, Goettingen, Germany) were cultured under 5% carbon dioxide at 37 °C in RPMI 1640 antibiotic-free medium (Invitrogen, Carlsbad, CA, USA), supplemented with 15% FBS and 2 mM GlutaMAX™ (Invitrogen). D-PBS (Gibco, Life Technologies) was used to wash the cells, and 0.25% Trypsin-EDTA (Gibco, Life Technologies) was used to detach cells from the flask surface. They were split in a ratio of 1:5 (ideally 1000 cells/cm^2) when they reached 70–80% confluence (every 2–3 days). Transiently transfected CaV3.1 HEK293 T cells were used in FLIPR Assays. HEK 293 T cells were cultured under 5% carbon dioxide at 37 °C in DMEM supplemented with 10% (v/v) FBS. D-PBS was used to wash the cells, and 0.25% Trypsin-EDTA was used to detach cells from the flask surface. The cells were split and seeded at 6 million cells per T175 flask, to reach 70–80% confluence after 24 h. The next day, 12 μg DNA of human CaV3.1 was incubated in 900 μL serum-free DMEM with 36 μL FuGENE HD transfection reagent (Promega Corporation, Madison, WI, USA) (1:3 DNA/Fugene ratio) for 20 min, and then the mixture was added into the cell flask slowly, drop by drop. After the transfection, the cells were cultured under 5% carbon dioxide at 37 °C for 24 h and then moved to a 28 °C incubator.
Whole-cell patch-clamp experiments were performed on an automated electrophysiology platform QPatch 16 X (Sophion Bioscience A/S, Ballerup, Denmark) in single-hole configuration using 16-channel planar patch chip QPlates (Sophion Bioscience A/S). The extracellular recording solution contained, in mM: TEACl 157, MgCl2 0.5, CaCl2 5, and HEPES 10; pH 7.4 adjusted with TEAOH; and osmolarity 320 mOsm. The intracellular pipette solution contained, in mM: CsF 140, EGTA 1, HEPES 10, and NaCl 10; pH 7.2 adjusted with CsOH; and osmolarity 325 mOsm. Compounds were diluted in extracellular recording solution with 0.1% BSA at the concentrations stated (DMSO ≤ 0.1%), and the effects of compounds were compared to the control (extracellular solution with 0.1% BSA) parameters within the same cell. Compounds’ incubation time varied from two (for the highest concentration) to five (for the lowest concentration) minutes by applying the voltage protocol 10–30 times at 10 s intervals to ensure steady-state inhibition was achieved. The effects of compounds were obtained using 200 ms voltage steps to peak potential from a holding potential of −90 mV. Current–voltage (I–V) relationships were obtained by holding the cells at a potential of −100 mV before applying 50 ms pulses to potentials from −75 to +50 mV every 5 s in 5 mV increments. […]

human CaV3.1 = target: T2, human CaV3.1 (Homo sapiens, UniProt O43497); assay: T-type calcium channel window current FLIPR assay, CaV3.1; assay type: cell-based; details: n = 3, read-out: IC50 CaV3.1 (LVA CaVs)
T2 construct: expressed in transfected cells; host or cells: HEK 293 T cells, transient transfection (FuGENE HD)
T2 sequence (O43497 whole entry): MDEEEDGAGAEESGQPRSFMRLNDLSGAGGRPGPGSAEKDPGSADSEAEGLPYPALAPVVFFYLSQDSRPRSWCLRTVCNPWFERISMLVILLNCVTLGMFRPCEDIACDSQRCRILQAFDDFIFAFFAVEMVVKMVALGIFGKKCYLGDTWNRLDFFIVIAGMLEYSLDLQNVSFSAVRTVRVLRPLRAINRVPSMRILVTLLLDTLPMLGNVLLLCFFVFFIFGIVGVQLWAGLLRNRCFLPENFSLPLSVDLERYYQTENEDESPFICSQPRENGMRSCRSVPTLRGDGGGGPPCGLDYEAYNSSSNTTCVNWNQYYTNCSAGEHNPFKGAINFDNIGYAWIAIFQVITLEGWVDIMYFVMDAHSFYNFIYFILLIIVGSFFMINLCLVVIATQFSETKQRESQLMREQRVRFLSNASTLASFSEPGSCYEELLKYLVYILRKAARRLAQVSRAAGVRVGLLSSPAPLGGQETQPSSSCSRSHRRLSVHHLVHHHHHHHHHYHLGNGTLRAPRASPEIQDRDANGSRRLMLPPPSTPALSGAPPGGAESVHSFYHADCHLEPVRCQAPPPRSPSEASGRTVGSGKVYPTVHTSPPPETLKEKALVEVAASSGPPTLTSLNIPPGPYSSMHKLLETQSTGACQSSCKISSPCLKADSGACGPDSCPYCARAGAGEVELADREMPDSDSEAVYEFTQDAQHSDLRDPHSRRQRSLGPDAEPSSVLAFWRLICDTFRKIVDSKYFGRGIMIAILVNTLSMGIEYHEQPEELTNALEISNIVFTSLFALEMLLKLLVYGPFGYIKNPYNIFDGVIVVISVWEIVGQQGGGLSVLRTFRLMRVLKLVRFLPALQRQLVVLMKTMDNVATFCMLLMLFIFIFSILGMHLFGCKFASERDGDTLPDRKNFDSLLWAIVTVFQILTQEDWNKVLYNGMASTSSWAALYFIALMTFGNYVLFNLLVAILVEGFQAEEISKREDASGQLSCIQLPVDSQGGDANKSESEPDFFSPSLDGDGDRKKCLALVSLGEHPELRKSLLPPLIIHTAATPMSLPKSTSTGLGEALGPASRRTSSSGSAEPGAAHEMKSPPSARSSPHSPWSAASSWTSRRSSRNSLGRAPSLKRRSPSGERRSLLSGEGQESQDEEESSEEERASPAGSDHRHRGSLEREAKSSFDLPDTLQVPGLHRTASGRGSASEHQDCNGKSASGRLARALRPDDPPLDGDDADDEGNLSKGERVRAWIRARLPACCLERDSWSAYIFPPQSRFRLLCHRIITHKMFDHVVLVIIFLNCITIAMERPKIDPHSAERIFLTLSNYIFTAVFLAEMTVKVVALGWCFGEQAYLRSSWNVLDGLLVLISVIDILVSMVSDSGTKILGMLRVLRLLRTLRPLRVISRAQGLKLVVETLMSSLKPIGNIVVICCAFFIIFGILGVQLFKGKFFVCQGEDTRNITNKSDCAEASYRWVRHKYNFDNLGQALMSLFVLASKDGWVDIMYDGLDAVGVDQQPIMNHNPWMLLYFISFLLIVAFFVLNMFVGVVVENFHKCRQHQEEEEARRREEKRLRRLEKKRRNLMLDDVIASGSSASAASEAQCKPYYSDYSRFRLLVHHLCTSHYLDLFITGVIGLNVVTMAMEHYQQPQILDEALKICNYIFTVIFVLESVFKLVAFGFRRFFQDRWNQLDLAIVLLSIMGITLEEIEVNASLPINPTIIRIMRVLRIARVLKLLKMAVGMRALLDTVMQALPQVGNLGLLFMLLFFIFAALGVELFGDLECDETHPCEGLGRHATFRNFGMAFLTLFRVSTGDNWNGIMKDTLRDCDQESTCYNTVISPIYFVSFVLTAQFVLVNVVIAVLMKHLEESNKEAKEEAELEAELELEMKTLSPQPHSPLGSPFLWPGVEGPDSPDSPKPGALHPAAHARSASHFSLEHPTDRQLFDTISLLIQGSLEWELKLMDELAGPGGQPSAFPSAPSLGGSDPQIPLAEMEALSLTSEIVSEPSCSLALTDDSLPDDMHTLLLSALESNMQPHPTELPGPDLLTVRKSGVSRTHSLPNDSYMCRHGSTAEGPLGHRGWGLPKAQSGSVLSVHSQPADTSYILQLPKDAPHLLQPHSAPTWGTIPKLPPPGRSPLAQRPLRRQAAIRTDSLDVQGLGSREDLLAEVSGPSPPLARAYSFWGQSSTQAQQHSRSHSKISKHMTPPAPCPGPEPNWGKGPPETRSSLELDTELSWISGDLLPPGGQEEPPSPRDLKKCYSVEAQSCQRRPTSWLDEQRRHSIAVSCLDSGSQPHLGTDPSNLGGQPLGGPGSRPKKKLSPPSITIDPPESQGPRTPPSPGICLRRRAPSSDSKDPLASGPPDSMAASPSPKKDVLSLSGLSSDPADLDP
Description: as §1
(§2) HEK 293 cells stably expressing CaV3.2 or CaV3.3 were seeded into 384-well black wall clear bottom plates (Corning) at a density of 30,000 cells per well. Transiently transfected CaV3.1HEK293 T cells were seeded into 384-well black wall clear bottom plates at a density of 60,000 cells per well. Once the cells reached 90–95% confluence after 24 h, the media were removed from the wells and replaced with 20 μL of 10% calcium 4 dye (Molecular Devices, Sunnyvale, CA, USA) in HBSS-HEPES (containing 5 mM KCl, 10 mM HEPES, 140 mM NaCl, 10 mM glucose, and 0.5 mM CaCl2, pH 7.4) with 0.1% bovine serum albumin (BSA). The cells were incubated for 30 min at 37 °C in the presence of 5% carbon dioxide. Each well on the reagent plates for the first addition contained 15 μL different concentrations of compounds dissolved in HBSS-HEPES containing 0.1% BSA and <0.5% DMSO and was incubated for 20 min after loaded. Positive and negative controls contained 15 μL of HBSS-HEPES (0.1% BSA) alone. The plates were placed in the FLIPR^TETRA (Molecular Devices, Sunnyvale, CA, USA) programmed to measure maximum fluorescence intensity following a second addition of the agonist 5 mM CaCl2. The fluorescence readings were recorded and converted as described previously, and HBSS-HEPES (0.1% BSA) was used in the second addition as a negative control.

[2] = system: voltage-gated calcium channels (VGCC); assay: VGCC FLIPR cell-based assays, all channels (overall observation); set-up: species or system human
Description: as §2
SH-SY5Y cells were seeded into 384-well black wall clear bottom plates at a density of 15,000 cells per well, resulting in 90–95% confluence after 24 h. The media were then removed from the wells and replaced with 20 μL of 10% calcium 4 dye (Molecular Devices) in physiological salt solution (PSS) (containing 5.9 mM KCl, 1.4 mM MgCl2, 10 mM HEPES, 1.2 mM NaH2 PO4, 5 mM NaHCO3, 140 mM NaCl, 11.5 mM glucose, and 1.8 mM CaCl2, pH 7.4) with 0.1% BSA. As reported, for N-type calcium channel FLIPR assays the cells were pre-incubated with 10 µM nifedipine added in the dye to ensure full inhibition of L-type calcium responses. For L-type calcium channel FLIPR assays, the cells were pre-incubated with 1 µM CVID added in the dye to ensure full inhibition of N-type calcium responses. Positive control on the first reagent plate contained 15 μL of PSS (0.1% BSA), whereas PSS (0.1% BSA) containing 1 µM CVID and 10 µM nifedipine (final concentration) was used as a negative control. The fluorescence readings were recorded and converted as described previously, and agonist containing 90 mM KCl + 5 mM CaCl2 was used in the second addition.

| IC50 [1] [µM] | IC50 (human CaV3.1) [µM] | SMILES | inhibition of all the Ca2+ responses [2] | extent of block of CaV3.2 whole-cell inward Ca2+ current [1] |
| --- | --- | --- | --- | --- |
| 21.1 ± 1.19 | > 200 | c1ccc2c(Cc3c[nH]c4ccccc34)c[nH]c2c1 [DIM, 3,3′-diindolylmethane, reference compound] |  |  |
|  | 53.5 ± 2 | O=C(c1c[nH]c2cc(Br)ccc12)c1c[nH]c2cc(Br)ccc12 [IV] | poor inhibition |  |
| ~50 | 158 ± 11.1 | O=C(c1c[nH]c2ccccc12)c1c[nH]c2ccccc12 [DIM-one, 3,3′-diindolylmethanone] |  | poor inhibition |

| SMILES | IC50 [1] [µM] | IC50 (human CaV3.1) [µM] | inhibition of all the Ca2+ responses [2] | extent of block of CaV3.2 whole-cell inward Ca2+ current [1] |
| --- | --- | --- | --- | --- |
| O=C(c1cn(Cc2ccccc2)c2ccccc12)c1cn(Cc2ccccc2)c2ccccc12 [IX, bis(1-benzyl-1H-indol-3-yl)methanone] | 2.97 ± 0.29 | 35.1 ± 1.05 |  | partially blocked; also recorded: only partial inhibition |
